Values after ≈ are worked out from the molar mass of the structure shown. Like-named read-outs stand apart in the source and are kept apart here.
Tests used:
E. coli 901C = assay: microbe, parasite or virus in culture; format: cell-based; settings: Escherichia coli, read-out: MIC E. coli 901C
N. gonorrhoeae CDC-0197 = assay: Liquid broth MIC in Fastidious broth; settings: Neisseria gonorrhoeae
E. coli D22 = assay: microbe, parasite or virus in culture; format: cell-based; settings: Escherichia coli, D22, read-out: MIC E. coli D22
K. pneumoniae SI-117 = assay: microbe, parasite or virus in culture; format: cell-based; settings: Klebsiella pneumoniae, SI117, read-out: MIC K. pneumoniae SI-117
P. aeruginosa ATCC 27853 = assay: microbe, parasite or virus in culture; format: cell-based; settings: Pseudomonas aeruginosa, ATCC27853, read-out: MIC P. aeruginosa ATCC 27853
[1] = system: P. aeruginosa (ΔmexAB-oprM); assay: Broth microdilution MIC in CAMHB; format: cell-based; settings: Pseudomonas aeruginosa; read-out: MIC P. aeruginosa ΔmexAB-oprM
E. coli ATCC 25922 = assay: microbe, parasite or virus in culture; format: cell-based; settings: Escherichia coli, ATCC25922, read-out: MIC E. coli 25922
K. pneumoniae UMM = assay: microbe, parasite or virus in culture; format: cell-based; settings: Klebsiella pneumoniae, read-out: MIC K. pneumoniae UMM
P. aeruginosa ATCC 35151 = assay: microbe, parasite or virus in culture; format: cell-based; settings: Pseudomonas aeruginosa, ATCC35151, read-out: MIC P. aeruginosa ATCC 35151
K. pneumoniae 848844 = assay: microbe, parasite or virus in culture; format: cell-based; settings: Klebsiella pneumoniae, 848844, read-out: MIC K. pneumoniae 848844
E. coli AG100A = assay: Broth microdilution MIC in CAMHB; format: cell-based; settings: Escherichia coli, read-out: MIC E. coli AG100A
N. gonorrhoeae WHO M = assay: Liquid broth MIC in Fastidious broth; settings: Neisseria gonorrhoeae
[2] = target: T1, PBP2 from Neisseria gonorrhoeae (FA19) (Neisseria gonorrhoeae, UniProt P08149); assay: Bocillin-FL fluorescence polarization competition binding, N. gonorrhoeae PBP2; settings: fluorescence polarization competition binding assay using Bocillin-FL, read-out: N. gonorrhoeae PBP2 Potency
T1 construct: made in house
T1 sequence (P08149 whole entry): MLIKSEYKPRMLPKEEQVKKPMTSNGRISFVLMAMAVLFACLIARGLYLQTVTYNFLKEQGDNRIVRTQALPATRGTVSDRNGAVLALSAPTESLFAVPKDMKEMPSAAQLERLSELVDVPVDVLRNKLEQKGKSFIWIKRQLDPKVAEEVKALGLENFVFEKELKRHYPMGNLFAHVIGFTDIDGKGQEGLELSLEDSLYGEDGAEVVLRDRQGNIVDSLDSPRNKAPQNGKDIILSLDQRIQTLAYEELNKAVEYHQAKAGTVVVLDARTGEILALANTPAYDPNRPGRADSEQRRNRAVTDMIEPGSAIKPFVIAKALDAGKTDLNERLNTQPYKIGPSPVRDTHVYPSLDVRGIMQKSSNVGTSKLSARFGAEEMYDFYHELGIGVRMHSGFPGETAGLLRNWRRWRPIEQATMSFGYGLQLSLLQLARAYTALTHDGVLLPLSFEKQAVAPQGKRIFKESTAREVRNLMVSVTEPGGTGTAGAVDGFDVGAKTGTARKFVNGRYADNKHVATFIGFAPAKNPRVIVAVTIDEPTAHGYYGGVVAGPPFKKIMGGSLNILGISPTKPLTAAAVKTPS
In short: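 Fluorescence polarization competition with 0.1 μM Bocillin-FL (fluorescent penicillin V) against 0.25 μM N. gonorrhoeae FA19 PBP2 in 50 mM Hepes pH 8.0, 300 mM NaCl, 10% glycerol. Boronic acid inhibitors were preincubated with PBP, then Bocillin-FL was added and FP read (490/520 nm) up to 60 min. EC50 is the concentration halving PBP-bound Bocillin-FL.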

A. baumannii ATCC 19606 = assay: microbe, parasite or virus in culture; format: cell-based; settings: Acinetobacter baumannii, ATCC19606, read-out: MIC, A. baumannii ATCC 19606
E. coli AG100 = assay: microbe, parasite or virus in culture; format: cell-based; settings: Escherichia coli, AG100, read-out: MIC E. coli AG100
[3] = CDC0197, read-out: Minimum Inhibitory Concentration (MIC), N. gonorrhoeae CDC-0197
[4] = read-out: Minimum Inhibitory Concentration (MIC), N. gonorrhoeae WHO M
[5] = CDC0197, read-out: Minimum Inhibitory Concentration, CDC-0197
[6] = read-out: Minimum Inhibitory Concentration, WHO M

O=C(O)c1cccc2c1OB(O)[C@@H](NC(=O)C(NC(=O)N1CCN(CC(F)(F)F)C(=O)C1=O)c1ccc(P(=O)(O)O)cc1)C2 (stereo partly drawn) [Example 4, (3R)-3-(2-(2,3-dioxo-4-(2,2,2-trifluoroethyl)piperazine-1-carboxamido)-2-(4-phosphonophenyl)acetamido)-2-hydroxy-3,4-dihydro-2H-benzo[e][1,2]oxaborinine-8-carboxylic acid]
MIC (E. coli 901C): < 1 µg/mL | MIC (N. gonorrhoeae CDC-0197; [3]): 1 to 2 µg/mL (≈ 1.56 to 3.11 µM) | MIC (E. coli D22): 8 to 16 µg/mL (≈ 12.5 to 24.9 µM) | MIC (K. pneumoniae SI-117): > 128 µg/mL | MIC (P. aeruginosa ATCC 27853): > 128 µg/mL | MIC [1]: 32 to 64 µg/mL (≈ 49.8 to 99.7 µM) | MIC (E. coli ATCC 25922): > 128 µg/mL | MIC (K. pneumoniae UMM): > 128 µg/mL | MIC (P. aeruginosa ATCC 35151): 8 to 16 µg/mL (≈ 12.5 to 24.9 µM) | MIC (K. pneumoniae 848844): > 128 µg/mL | MIC (E. coli AG100A): 8 to 16 µg/mL (≈ 12.5 to 24.9 µM) | MIC (N. gonorrhoeae WHO M; [4]): < 1 µg/mL | EC50 [2]: < 10 µM | MIC (A. baumannii ATCC 19606): > 128 µg/mL | MIC (E. coli AG100): > 128 µg/mL

CS(=O)(=O)N1CCN(C(=O)N[C@@H](C(=O)N[C@H]2Cc3cccc(C(=O)O)c3OB2O)c2ccc(P(=O)(O)O)cc2)C1=O (single isomer, unassigned) [Example 6]
MIC (E. coli 901C): < 1 µg/mL | MIC (N. gonorrhoeae CDC-0197; [3]): < 1 µg/mL | MIC (E. coli D22): 2 to 4 µg/mL (≈ 3.28 to 6.55 µM) | MIC (K. pneumoniae SI-117): > 128 µg/mL | MIC (P. aeruginosa ATCC 27853): > 128 µg/mL | MIC [1]: 8 to 16 µg/mL (≈ 13.1 to 26.2 µM) | MIC (E. coli ATCC 25922): 32 to 64 µg/mL (≈ 52.4 to 105 µM) | MIC (K. pneumoniae UMM): 32 to 64 µg/mL (≈ 52.4 to 105 µM) | MIC (P. aeruginosa ATCC 35151): < 1 µg/mL | MIC (K. pneumoniae 848844): > 128 µg/mL | MIC (E. coli AG100A): 8 to 16 µg/mL (≈ 13.1 to 26.2 µM) | MIC (N. gonorrhoeae WHO M; [4]): < 1 µg/mL | EC50 [2]: < 10 µM | MIC (A. baumannii ATCC 19606): 8 to 16 µg/mL (≈ 13.1 to 26.2 µM) | MIC (E. coli AG100): 8 to 16 µg/mL (≈ 13.1 to 26.2 µM)

O=C(NCCCN1CCN(C(=O)NC(C(=O)N[C@H]2Cc3ccc(F)c(C(=O)O)c3OB2O)c2cc(F)c(O)c(O)c2Cl)C(=O)C1=O)c1ccc(O)c(F)c1 (stereo partly drawn) [Example 304, (3R)-3-(2-(2-chloro-5-fluoro-3,4-dihydroxyphenyl)-2-(4-(3-(3-fluoro-4-hydroxybenzamido)propyl)-2,3-dioxopiperazine-1-carboxamido)acetamido)-7-fluoro-2-hydroxy-3,4-dihydro-2H-benzo[e][1,2]oxaborinine-8-carboxylic acid]
MIC (N. gonorrhoeae CDC-0197; [5]): > 64 µg/mL | MIC (N. gonorrhoeae WHO M; [6]): 16 to 32 µg/mL (≈ 20.6 to 41.1 µM)

Cc1cc(C(=O)NCCCN2CCN(C(=O)N[C@@H](C(=O)N[C@H]3Cc4ccc(F)c(C(=O)O)c4OB3O)c3cc(F)c(O)c(O)c3Cl)C(=O)C2=O)ccn1 [Example 298, (R)-3-((R)-2-(2-chloro-5-fluoro-3,4-dihydroxyphenyl)-2-(4-(3-(2-methylisonicotinamido)propyl)-2,3-dioxopiperazine-1-carboxamido)acetamido)-7-fluoro-2-hydroxy-3,4-dihydro-2H-benzo[e][1,2]oxaborinine-8-carboxylic acid]
MIC (N. gonorrhoeae CDC-0197; [5]): > 64 µg/mL | MIC (N. gonorrhoeae WHO M; [6]): 16 to 32 µg/mL (≈ 21.1 to 42.2 µM)

O=C(NCCCN1CCN(C(=O)N[C@H](C(=O)N[C@H]2Cc3ccc(F)c(C(=O)O)c3OB2O)c2cc(F)c(O)c(O)c2Cl)C(=O)C1=O)c1cccc(O)c1Cl [Example 302, (R)-3-((S)-2-(4-(3-(2-chloro-3-hydroxybenzamido)propyl)-2,3-dioxopiperazine-1-carboxamido)-2-(2-chloro-5-fluoro-3,4-dihydroxyphenyl)acetamido)-7-fluoro-2-hydroxy-3,4-dihydro-2H-benzo[e][1,2]oxaborinine-8-carboxylic acid]
MIC (N. gonorrhoeae CDC-0197; [5]): > 64 µg/mL | MIC (N. gonorrhoeae WHO M; [6]): > 64 µg/mL

O=C(NCCCN1CCN(C(=O)N[C@@H](C(=O)N[C@H]2Cc3ccc(F)c(C(=O)O)c3OB2O)c2cc(F)c(O)c(O)c2Cl)C1=O)Nc1ccc(O)cc1 [Example 284, (R)-3-((R)-2-(2-chloro-5-fluoro-3,4-dihydroxyphenyl)-2-(3-(3-(3-(4-hydroxyphenyl)ureido)propyl)-2-oxoimidazolidine-1-carboxamido)acetamido)-7-fluoro-2-hydroxy-3,4-dihydro-2H-benzo[e][1,2]oxaborinine-8-carboxylic acid]
MIC (N. gonorrhoeae CDC-0197; [5]): 16 to 32 µg/mL (≈ 21.4 to 42.8 µM) | MIC (N. gonorrhoeae WHO M; [6]): 4 to 8 µg/mL (≈ 5.36 to 10.7 µM)

O=C(NCCCN1CCN(C(=O)N[C@H](C(=O)N[C@H]2Cc3ccc(F)c(C(=O)O)c3OB2O)c2cc(F)c(O)c(O)c2Cl)C(=O)C1=O)c1ccnc(F)c1F [Example 299, (R)-3-((S)-2-(2-chloro-5-fluoro-3,4-dihydroxyphenyl)-2-(4-(3-(2,3-difluoroisonicotinamido)propyl)-2,3-dioxopiperazine-1-carboxamido)acetamido)-7-fluoro-2-hydroxy-3,4-dihydro-2H-benzo[e][1,2]oxaborinine-8-carboxylic acid]
MIC (N. gonorrhoeae CDC-0197; [5]): > 64 µg/mL | MIC (N. gonorrhoeae WHO M; [6]): > 64 µg/mL

O=C(NCCCN1CCN(C(=O)NC(C(=O)N[C@H]2Cc3ccc(F)c(C(=O)O)c3OB2O)c2cc(F)c(O)c(O)c2Cl)C(=O)C1=O)c1ccc(O)cc1O (stereo partly drawn) [Example 307, (3R)-3-(2-(2-chloro-5-fluoro-3,4-dihydroxyphenyl)-2-(4-(3-(2,4-dihydroxybenzamido)propyl)-2,3-dioxopiperazine-1-carboxamido)acetamido)-7-fluoro-2-hydroxy-3,4-dihydro-2H-benzo[e][1,2]oxaborinine-8-carboxylic acid]
MIC (N. gonorrhoeae CDC-0197; [5]): > 64 µg/mL | MIC (N. gonorrhoeae WHO M; [6]): 16 to 32 µg/mL (≈ 20.6 to 41.2 µM)

O=C(NCCS(=O)(=O)N1CCN(C(=O)N[C@H](C(=O)N[C@H]2Cc3ccc(F)c(C(=O)O)c3OB2O)c2cc(F)c(O)c(O)c2Cl)C1=O)c1ccc(O)cc1 [Example 286, (R)-3-((S)-2-(2-chloro-5-fluoro-3,4-dihydroxyphenyl)-2-(3-((2-(4-hydroxybenzamido)ethyl)sulfonyl)-2-oxoimidazolidine-1-carboxamido)acetamido)-7-fluoro-2-hydroxy-3,4-dihydro-2H-benzo[e][1,2]oxaborinine-8-carboxylic acid]
MIC (N. gonorrhoeae CDC-0197; [5]): > 64 µg/mL | MIC (N. gonorrhoeae WHO M; [6]): > 64 µg/mL

O=C(O)c1c(F)ccc2c1OB(O)[C@@H](NC(=O)C(NC(=O)N1CCN(Cc3ccc(O)c(O)c3Cl)C(=O)C1=O)c1cc(F)c(O)c(O)c1Cl)C2 (stereo partly drawn) [Example 292, (3R)-3-(2-(4-(2-chloro-3,4-dihydroxybenzyl)-2,3-dioxopiperazine-1-carboxamido)-2-(2-chloro-5-fluoro-3,4-dihydroxyphenyl)acetamido)-7-fluoro-2-hydroxy-3,4-dihydro-2H-benzo[e][1,2]oxaborinine-8-carboxylic acid]
MIC (N. gonorrhoeae CDC-0197; [5]): > 64 µg/mL | MIC (N. gonorrhoeae WHO M; [6]): > 64 µg/mL

O=C(NCCCN1CCN(C(=O)NC(C(=O)N[C@H]2Cc3ccc(F)c(C(=O)O)c3OB2O)c2cc(F)c(O)c(O)c2Cl)C1=O)c1cccnc1 (stereo partly drawn) [Example 281, (3R)-3-(2-(2-chloro-5-fluoro-3,4-dihydroxyphenyl)-2-(3-(3-(nicotinamido)propyl)-2-oxoimidazolidine-1-carboxamido)acetamido)-7-fluoro-2-hydroxy-3,4-dihydro-2H-benzo[e][1,2]oxaborinine-8-carboxylic acid]
MIC (N. gonorrhoeae CDC-0197; [5]): > 64 µg/mL | MIC (N. gonorrhoeae WHO M; [6]): 16 to 32 µg/mL (≈ 22.3 to 44.6 µM)

O=C(NCCCS(=O)(=O)N1CCN(C(=O)NC(C(=O)N[C@H]2Cc3ccc(F)c(C(=O)O)c3OB2O)c2cc(F)c(O)c(O)c2Cl)C1=O)Nc1cccc(O)c1 (stereo partly drawn) [Example 277, (3R)-3-(2-(2-chloro-5-fluoro-3,4-dihydroxyphenyl)-2-(3-((3-(3-(3-hydroxyphenyl)ureido)propyl)sulfonyl)-2-oxoimidazolidine-1-carboxamido)acetamido)-7-fluoro-2-hydroxy-3,4-dihydro-2H-benzo[e][1,2]oxaborinine-8-carboxylic acid]
MIC (N. gonorrhoeae CDC-0197; [5]): 16 to 32 µg/mL (≈ 19.7 to 39.5 µM) | MIC (N. gonorrhoeae WHO M; [6]): 16 to 32 µg/mL (≈ 19.7 to 39.5 µM)

O=C(NCCS(=O)(=O)N1CCN(C(=O)NC(C(=O)N[C@H]2Cc3ccc(F)c(C(=O)O)c3OB2O)c2cc(F)c(O)c(O)c2Cl)C1=O)Nc1ccc(O)cc1 (stereo partly drawn) [Example 289, (3R)-3-(2-(2-chloro-5-fluoro-3,4-dihydroxyphenyl)-2-(3-((2-(3-(4-hydroxyphenyl)ureido)ethyl)sulfonyl)-2-oxoimidazolidine-1-carboxamido)acetamido)-7-fluoro-2-hydroxy-3,4-dihydro-2H-benzo[e][1,2]oxaborinine-8-carboxylic acid]
MIC (N. gonorrhoeae CDC-0197; [5]): 16 to 32 µg/mL (≈ 20.1 to 40.2 µM) | MIC (N. gonorrhoeae WHO M; [6]): 4 to 8 µg/mL (≈ 5.02 to 10 µM)
